Common to all, as to test: biochemical
Holding throughout (type): biochemical

Test [1] has as its target T1, 382 unique human kinases (Homo sapiens, UniProt P10721, T670I/V559D).
T1 construct: purchased Reaction Biology (HotSpot contract assay)
The following applies: c-Kit (V559D/T670I), 10 uM; for remaining activity at 10 µM: read-out: % Enzyme Activity (relative to DMSO controls).

Test [2] has as its target T2, 382 unique human kinases (Homo sapiens, UniProt P04049).
T2 construct: purchased Reaction Biology (HotSpot contract assay)
The following applies: RAF1, compound at 10 uM, duplicate values; for remaining activity at 10 µM: read-out: % Enzyme Activity (relative to DMSO controls).

For test [3], the target named is T3, 382 unique human kinases (Homo sapiens, UniProt P22455, V550L).
T3 construct: purchased Reaction Biology (HotSpot contract assay)
As to conditions: FGFR4 (V550L), 10 uM; for remaining activity at 10 µM: read-out: % Enzyme Activity (relative to DMSO controls).

Test [4] has as its target T4, 382 unique human kinases (Homo sapiens, UniProt P31749).
T4 construct: purchased Reaction Biology (HotSpot contract assay)
The following applies: kinase AKT1, compound 10 uM; for remaining activity at 10 µM: read-out: % Enzyme Activity (relative to DMSO controls).

Test [5] addresses T5, 382 unique human kinases (Homo sapiens, UniProt P10721, D816E).
T5 construct: purchased Reaction Biology (HotSpot contract assay)
The following applies: c-Kit (D816E), [ATP] 50 µM, compound 10 uM; for remaining activity at 10 µM: read-out: % Enzyme Activity (relative to DMSO controls).

Test [6] deals with T6, 382 unique human kinases (Homo sapiens, UniProt Q8IY84).
T6 construct: purchased Reaction Biology (HotSpot contract assay)
As to conditions: NIM1, 10 uM; for remaining activity at 10 µM: read-out: % Enzyme Activity (relative to DMSO controls).

For test [7], the target named is T7, 382 unique human kinases (Homo sapiens, UniProt Q06418).
T7 construct: purchased Reaction Biology (HotSpot contract assay)
T7 sequence (Q06418 41-890): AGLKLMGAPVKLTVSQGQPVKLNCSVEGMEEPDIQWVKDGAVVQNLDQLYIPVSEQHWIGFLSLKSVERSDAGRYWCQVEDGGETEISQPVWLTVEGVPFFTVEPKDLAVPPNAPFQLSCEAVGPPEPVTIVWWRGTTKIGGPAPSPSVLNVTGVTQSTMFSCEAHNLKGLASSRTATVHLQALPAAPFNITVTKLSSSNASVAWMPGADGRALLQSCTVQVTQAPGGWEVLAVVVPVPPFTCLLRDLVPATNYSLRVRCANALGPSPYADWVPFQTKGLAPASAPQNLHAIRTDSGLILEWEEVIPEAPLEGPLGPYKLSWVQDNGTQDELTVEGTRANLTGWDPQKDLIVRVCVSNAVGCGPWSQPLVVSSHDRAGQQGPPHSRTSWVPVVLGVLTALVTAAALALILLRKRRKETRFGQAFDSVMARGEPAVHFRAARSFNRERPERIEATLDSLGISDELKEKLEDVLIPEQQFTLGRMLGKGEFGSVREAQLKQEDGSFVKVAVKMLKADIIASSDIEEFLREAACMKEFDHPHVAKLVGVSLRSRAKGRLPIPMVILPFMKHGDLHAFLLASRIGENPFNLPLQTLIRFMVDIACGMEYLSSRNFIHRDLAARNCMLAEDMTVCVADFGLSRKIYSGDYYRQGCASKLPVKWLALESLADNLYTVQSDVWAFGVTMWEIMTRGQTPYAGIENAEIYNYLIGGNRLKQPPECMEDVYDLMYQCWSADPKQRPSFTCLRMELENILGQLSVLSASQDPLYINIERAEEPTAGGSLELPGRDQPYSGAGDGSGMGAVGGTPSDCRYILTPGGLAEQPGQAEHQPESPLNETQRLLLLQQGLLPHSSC
As to conditions: TYRO3/SKY, 10 uM; for remaining activity at 10 µM: read-out: % Enzyme Activity (relative to DMSO controls).

The target in test [8] is T8, 382 unique human kinases (Homo sapiens, UniProt P10721, D816V/V560G).
T8 construct: purchased Reaction Biology (HotSpot contract assay)
As to conditions: c-Kit (V560G/D816V), [ATP] 20 µM, compound 10 uM; for remaining activity at 10 µM: read-out: % Enzyme Activity (relative to DMSO controls).

The target in test [9] is T9, 382 unique human kinases (Homo sapiens, UniProt O95835).
T9 construct: purchased Reaction Biology (HotSpot contract assay)
T9 sequence (O95835 1-1130): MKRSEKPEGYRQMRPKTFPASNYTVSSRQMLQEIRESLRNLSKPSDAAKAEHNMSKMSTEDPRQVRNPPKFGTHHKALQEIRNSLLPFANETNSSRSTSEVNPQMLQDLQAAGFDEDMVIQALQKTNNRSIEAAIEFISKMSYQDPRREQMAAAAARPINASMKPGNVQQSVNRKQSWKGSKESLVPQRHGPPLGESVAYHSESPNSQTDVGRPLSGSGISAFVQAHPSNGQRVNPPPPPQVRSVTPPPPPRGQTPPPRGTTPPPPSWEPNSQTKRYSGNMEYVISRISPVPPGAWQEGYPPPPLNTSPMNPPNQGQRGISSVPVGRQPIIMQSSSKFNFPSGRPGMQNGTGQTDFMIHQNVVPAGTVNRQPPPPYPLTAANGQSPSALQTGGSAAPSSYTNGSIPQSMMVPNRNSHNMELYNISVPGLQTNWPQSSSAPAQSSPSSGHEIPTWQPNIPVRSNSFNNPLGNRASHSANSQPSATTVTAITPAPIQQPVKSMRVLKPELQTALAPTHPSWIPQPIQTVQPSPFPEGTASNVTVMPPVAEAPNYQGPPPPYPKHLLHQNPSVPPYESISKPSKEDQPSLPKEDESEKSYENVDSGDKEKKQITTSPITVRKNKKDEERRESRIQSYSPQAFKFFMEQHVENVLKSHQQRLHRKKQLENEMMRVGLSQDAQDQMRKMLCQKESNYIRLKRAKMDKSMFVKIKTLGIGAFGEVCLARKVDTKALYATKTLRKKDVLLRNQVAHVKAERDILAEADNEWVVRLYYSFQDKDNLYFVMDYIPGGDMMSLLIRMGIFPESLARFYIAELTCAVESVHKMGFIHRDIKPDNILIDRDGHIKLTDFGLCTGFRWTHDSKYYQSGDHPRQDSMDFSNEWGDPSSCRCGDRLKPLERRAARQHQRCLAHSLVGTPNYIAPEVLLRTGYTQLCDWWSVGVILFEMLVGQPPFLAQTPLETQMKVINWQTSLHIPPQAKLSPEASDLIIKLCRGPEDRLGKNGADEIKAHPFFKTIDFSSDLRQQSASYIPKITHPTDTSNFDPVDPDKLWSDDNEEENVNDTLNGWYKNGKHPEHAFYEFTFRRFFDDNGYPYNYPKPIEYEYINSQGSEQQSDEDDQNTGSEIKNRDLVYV
As to conditions: LATS1, 10 uM; for remaining activity at 10 µM: read-out: % Enzyme Activity (relative to DMSO controls).

T6 sequence (Q8IY84 whole entry): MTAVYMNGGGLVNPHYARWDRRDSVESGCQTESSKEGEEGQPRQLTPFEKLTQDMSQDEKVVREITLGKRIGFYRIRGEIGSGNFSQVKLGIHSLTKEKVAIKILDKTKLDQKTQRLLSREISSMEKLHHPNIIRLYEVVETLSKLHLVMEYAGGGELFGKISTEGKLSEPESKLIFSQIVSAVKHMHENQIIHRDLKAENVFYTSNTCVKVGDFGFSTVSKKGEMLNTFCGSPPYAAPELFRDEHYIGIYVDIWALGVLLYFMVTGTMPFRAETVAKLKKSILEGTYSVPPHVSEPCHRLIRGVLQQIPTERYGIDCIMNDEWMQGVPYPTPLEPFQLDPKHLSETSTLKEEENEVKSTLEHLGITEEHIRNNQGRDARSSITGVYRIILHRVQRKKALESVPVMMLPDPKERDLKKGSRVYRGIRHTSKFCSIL
T3 sequence (P22455 22-802 V550L): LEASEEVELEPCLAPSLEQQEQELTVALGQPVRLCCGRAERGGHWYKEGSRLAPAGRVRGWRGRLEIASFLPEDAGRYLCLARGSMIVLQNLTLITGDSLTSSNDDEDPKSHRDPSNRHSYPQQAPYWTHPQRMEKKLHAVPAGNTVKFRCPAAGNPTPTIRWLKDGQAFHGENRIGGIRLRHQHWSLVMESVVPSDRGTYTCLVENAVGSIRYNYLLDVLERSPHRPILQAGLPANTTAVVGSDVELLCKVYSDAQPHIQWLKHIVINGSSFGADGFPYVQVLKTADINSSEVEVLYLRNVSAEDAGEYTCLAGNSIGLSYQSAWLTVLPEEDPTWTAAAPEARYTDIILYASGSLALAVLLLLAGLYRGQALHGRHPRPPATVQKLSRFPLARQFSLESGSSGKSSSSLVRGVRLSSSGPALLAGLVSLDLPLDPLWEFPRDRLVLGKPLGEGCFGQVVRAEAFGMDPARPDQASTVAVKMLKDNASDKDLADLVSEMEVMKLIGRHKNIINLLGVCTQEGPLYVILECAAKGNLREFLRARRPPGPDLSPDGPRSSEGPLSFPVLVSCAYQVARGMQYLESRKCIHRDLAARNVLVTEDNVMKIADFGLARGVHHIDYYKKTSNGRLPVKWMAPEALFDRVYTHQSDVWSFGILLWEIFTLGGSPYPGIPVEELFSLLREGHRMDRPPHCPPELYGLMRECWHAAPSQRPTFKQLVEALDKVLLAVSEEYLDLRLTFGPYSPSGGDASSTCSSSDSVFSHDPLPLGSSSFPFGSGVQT
T4 sequence (P31749 whole entry): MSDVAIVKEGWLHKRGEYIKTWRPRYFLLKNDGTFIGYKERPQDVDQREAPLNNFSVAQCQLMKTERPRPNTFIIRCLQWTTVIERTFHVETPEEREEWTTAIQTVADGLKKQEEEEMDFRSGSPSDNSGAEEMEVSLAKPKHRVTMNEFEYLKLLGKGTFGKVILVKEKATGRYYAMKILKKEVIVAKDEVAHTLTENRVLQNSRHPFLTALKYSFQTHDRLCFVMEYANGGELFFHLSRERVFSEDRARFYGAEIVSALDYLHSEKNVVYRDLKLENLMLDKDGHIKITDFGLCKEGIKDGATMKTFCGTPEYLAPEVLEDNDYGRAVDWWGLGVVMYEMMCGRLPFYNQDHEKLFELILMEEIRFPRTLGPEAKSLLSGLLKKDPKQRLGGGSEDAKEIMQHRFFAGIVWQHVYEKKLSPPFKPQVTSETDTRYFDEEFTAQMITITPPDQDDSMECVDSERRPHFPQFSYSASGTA
T2 sequence (P04049 whole entry): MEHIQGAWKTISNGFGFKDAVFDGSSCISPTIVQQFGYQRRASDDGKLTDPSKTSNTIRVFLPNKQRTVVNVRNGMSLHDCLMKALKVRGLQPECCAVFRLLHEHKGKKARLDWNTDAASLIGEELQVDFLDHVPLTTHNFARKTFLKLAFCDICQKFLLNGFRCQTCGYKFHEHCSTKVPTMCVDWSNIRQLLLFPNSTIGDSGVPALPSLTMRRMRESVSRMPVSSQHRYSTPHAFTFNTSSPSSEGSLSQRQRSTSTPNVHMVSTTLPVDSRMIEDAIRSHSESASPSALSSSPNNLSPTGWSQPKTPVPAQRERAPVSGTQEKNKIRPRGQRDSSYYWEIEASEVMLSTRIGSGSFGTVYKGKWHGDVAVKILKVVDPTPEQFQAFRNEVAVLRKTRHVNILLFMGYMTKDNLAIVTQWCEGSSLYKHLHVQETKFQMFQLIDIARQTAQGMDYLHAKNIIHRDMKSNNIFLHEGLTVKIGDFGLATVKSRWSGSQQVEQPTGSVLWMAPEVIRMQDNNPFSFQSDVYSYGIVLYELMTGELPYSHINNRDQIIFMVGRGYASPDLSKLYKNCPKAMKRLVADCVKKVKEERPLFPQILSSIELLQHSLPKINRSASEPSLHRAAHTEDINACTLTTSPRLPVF
T8 sequence (P10721 26-976 V560G/D816V): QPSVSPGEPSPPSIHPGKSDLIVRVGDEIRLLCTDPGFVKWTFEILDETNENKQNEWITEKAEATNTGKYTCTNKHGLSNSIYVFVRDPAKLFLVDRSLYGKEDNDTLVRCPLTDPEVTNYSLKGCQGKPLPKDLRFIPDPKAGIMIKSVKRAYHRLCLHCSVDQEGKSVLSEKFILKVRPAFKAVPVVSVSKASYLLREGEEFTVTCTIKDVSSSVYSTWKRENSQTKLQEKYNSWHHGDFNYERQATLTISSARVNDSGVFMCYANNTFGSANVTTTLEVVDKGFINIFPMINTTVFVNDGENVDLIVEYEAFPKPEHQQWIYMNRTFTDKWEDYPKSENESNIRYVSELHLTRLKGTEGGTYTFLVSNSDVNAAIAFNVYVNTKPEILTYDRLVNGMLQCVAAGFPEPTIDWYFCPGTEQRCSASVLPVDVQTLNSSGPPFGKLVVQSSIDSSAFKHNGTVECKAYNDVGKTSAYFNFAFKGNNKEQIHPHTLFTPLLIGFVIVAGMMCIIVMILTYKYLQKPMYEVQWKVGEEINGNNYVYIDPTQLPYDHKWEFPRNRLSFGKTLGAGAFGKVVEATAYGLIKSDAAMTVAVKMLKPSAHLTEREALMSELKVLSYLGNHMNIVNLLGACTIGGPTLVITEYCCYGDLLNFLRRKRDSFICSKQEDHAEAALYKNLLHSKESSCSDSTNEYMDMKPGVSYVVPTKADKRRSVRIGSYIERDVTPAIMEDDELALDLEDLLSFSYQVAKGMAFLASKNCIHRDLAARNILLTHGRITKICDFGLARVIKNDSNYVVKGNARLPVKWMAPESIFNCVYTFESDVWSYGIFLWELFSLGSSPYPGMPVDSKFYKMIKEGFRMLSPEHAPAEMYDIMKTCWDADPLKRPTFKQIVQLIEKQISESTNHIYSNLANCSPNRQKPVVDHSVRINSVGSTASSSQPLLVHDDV
T1 sequence (P10721 26-976 V559D/T670I): as the sequence (P10721 26-976 V560G/D816V) above, with V534D, G535V, T645I, V791D counted along it
T5 sequence (P10721 26-976 D816E): as the sequence (P10721 26-976 V560G/D816V) above, with G535V, V791E counted along it

In the case of `CC(C)c1cc(-c2n[nH]c(=O)n2-c2ccc3c(ccn3C)c2)c(O)cc1O` [Ganetespib (STA9090)], the remaining activity at 10 µM was determined as 67.9% at 382 unique human kinases [1], 106% at 382 unique human kinases [2], 76.1% at 382 unique human kinases [3] and 84.4% on 382 unique human kinases [4].

Turning to `CC(C)c1cc(-c2n[nH]c(=O)n2-c2ccc3c(ccn3C)c2)c(O)cc1O` [Ganetespib], the remaining activity at 10 µM on 382 unique human kinases [5] is 41.2%; at 382 unique human kinases [6] it was 90.5%; on 382 unique human kinases [7] it was 102%; at 382 unique human kinases [8] it was 24.3%; on 382 unique human kinases [9], 95.5%.

Take `CCNC(=O)c1noc(-c2cc(C(C)C)c(O)cc2O)c1-c1ccc(CN2CCOCC2)cc1` [Luminespib (AUY-922)]: the “% Enzyme Activity (relative to DMSO controls)” value on 382 unique human kinases [1] amounted to 91.06%; on 382 unique human kinases [2] it was 103.94%; on 382 unique human kinases [3] it was 101.11%; at 382 unique human kinases [4], 97.59%. Besides, the remaining activity at 10 µM at 382 unique human kinases [1] worked out at 91.5%; on 382 unique human kinases [2] it was 105%; at 382 unique human kinases [3] it was 101%; at 382 unique human kinases [4] it was 98.4%.

Regarding `CCNC(=O)c1noc(-c2cc(C(C)C)c(O)cc2O)c1-c1ccc(CN2CCOCC2)cc1` [Luminespib], the “% Enzyme Activity (relative to DMSO controls)” value on 382 unique human kinases [5] is reported as 73.14%; on 382 unique human kinases [6], 99.73%; on 382 unique human kinases [7], 106.19%; at 382 unique human kinases [8] it was 61.63%; at 382 unique human kinases [9] it was 98.44%. Moreover, the remaining activity at 10 µM at 382 unique human kinases [5] came out at 76.2%; on 382 unique human kinases [6], 99.8%; on 382 unique human kinases [7] it was 107%; at 382 unique human kinases [8] it was 61.7%; at 382 unique human kinases [9], 98.6%.

For the origin of these results see paper PMC8550792, “Evolution of kinase polypharmacology across HSP90 drug discovery” (Cell Chemical Biology, 2021).
